{
  "source": "paper PMC2895771",
  "about": "(Journal of the American Chemical Society, 2010)",
  "key": {"[1]": {"system": "double tudor domain of JMJD2A", "type": "biochemical", "details": "probe 1 (1 μM), protein 100 ng; in words"}, "endogenous ING2": {"system": "endogenous ING2", "experiment": "capture of endogenous ING2 from Hela cell lysates", "details": "probe 1 (2 μM), UV, biotin-N3, streptavidin, Western blot, in words"}, "GST-ING2PHD": {"system": "GST-ING2PHD", "type": "biochemical", "details": "probe 1 (1 μM); GST-ING2PHD 10 μg/mL, 280 nM; Hela cell lysates 2 mg/mL; in words"}, "PHD finger of BPTF": {"system": "PHD finger of BPTF", "experiment": "labeling of recombinant BPTF PHD finger by probe 1 and competition by peptides", "type": "biochemical", "details": "probe 1 (1 μM), protein 100 ng; in words"}, "[2]": {"molecular_target": "T1, GST-fused PHD finger of ING2 (GST-ING2PHD) (Homo sapiens, UniProt Q9H160)", "T1 sequence (Q9H160 212-261 limits assumed)": "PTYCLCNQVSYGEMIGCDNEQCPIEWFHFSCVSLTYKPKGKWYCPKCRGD", "experiment": "UV photocrosslinking labeling of recombinant GST-ING2PHD by probe 1", "type": "biochemical", "details": "UV irradiation 1 h, coupled to rhodamine azide; in words"}},
  "data": [
    {"substance": "probe 1: H3K4me3 peptide probe; benzophenone moiety replaced the side chain of Ala 7; spacer (H3 residues 8–15) and an alkyne (ARTKQT; not fully specified; trimethyl-lysine at 4 (K(me3)); benzophenone moiety in place of the side chain of Ala 7; an alkyne group)", "values": [
      {"measurement": "labeling of recombinant protein", "setting": "[1]", "result": "robust labeling"},
      {"measurement": "capture of endogenous ING2", "setting": "endogenous ING2", "result": "endogenous ING2 was captured by the probe"},
      {"measurement": "labeling of GST-ING2PHD in cell lysates", "setting": "GST-ING2PHD", "result": "robustly labeled"},
      {"measurement": "labeling of recombinant protein", "setting": "PHD finger of BPTF", "result": "robust labeling"},
      {"measurement": "labeling of the recombinant protein", "setting": "[2]", "result": "successfully labeled the recombinant protein in a dose-dependent manner"}
    ]}
  ]
}
